Data set [1] is filed under the species Homo sapiens. Description: Inhibition of P-gp in human MDA435/LCC6MDR cells assessed as potentiation of paclitaxel-induced cytotoxicity at 1 uM measured after 5 days by Cell Titer 96 Aqueous assay relative to paclitaxel alone. The data set is classed as cell-based.
Data set [2] is filed under the species Homo sapiens. Description: Potency index, ratio of EC50 for verapamil to EC50 for test compound for inhibition of P-gp in human MDA435/LCC6MDR cells assessed as reduction of doxorubicin cytotoxic IC50 by half. It is filed as cell-based.
The nature of data set [3]: Inhibition of P-gp in human MDA435/LCC6MDR cells assessed as reduction of vincristine cytotoxic IC50 by half measured after 5 days by Cell Titer 96 Aqueous assay. The data set is classed as cell-based. The following applies: 120 h.
The species named for data set [4] is Homo sapiens. As to the kind of experiment: Potency index, ratio of EC50 for verapamil to EC50 for test compound for inhibition of P-gp in human MDA435/LCC6MDR cells assessed as reduction of vinblastine cytotoxic IC50 by half. It is filed as cell-based.
A short description of data set [5]: Inhibition of P-gp in human MDA435/LCC6MDR cells assessed as reduction of vinblastine cytotoxic IC50 by half measured after 5 days by Cell Titer 96 Aqueous assay. The following applies: 120 h. It is filed as cell-based.
Data set [6] is filed under the species Homo sapiens. Description: Inhibition of P-gp in human MDA435/LCC6MDR cells assessed as increase in doxorubicin accumulation at 2 uM measured after 150 mins by fluorescence spectrophotometric method relative to control. The data set is classed as cell-based.
Data set [7] in a line: Inhibition of P-gp in human MDA435/LCC6MDR cells assessed as reduction of doxorubicin cytotoxic IC50 by half after 5 days by Cell Titer 96 Aqueous assay. It is filed as cell-based. As to conditions: 120 h.
The species named for data set [8] is Homo sapiens. Description: Potency index, ratio of EC50 for verapamil to EC50 for test compound for inhibition of P-gp in human MDA435/LCC6MDR cells assessed as reduction of vincristine cytotoxic IC50 by half. It is filed as cell-based.
Data set [9] deals with P-gp. Description: Selectivity index, ratio of IC50 for cytotoxicity against mouse L929 cells to EC50 for inhibition of P-gp in human MDA435/LCC6MDR cells assessed as reduction of vinblastine cytotoxic IC50 by half. It is filed as toxicity, cell-based. The following applies: probe vinblastine, read-out: Ratio IC50/EC50.
The nature of data set [10]: Cytotoxicity against mouse L929 cells measured after 3 days by MTS assay. The data set is classed as toxicity.
For data set [11], the species on record is Homo sapiens. As to the kind of experiment: Potency index, ratio of EC50 for verapamil to EC50 for test compound for inhibition of P-gp in human MDA435/LCC6MDR cells assessed as reduction of paclitaxel cytotoxic IC50 by half. It is filed as cell-based.
The species named for data set [12] is Homo sapiens. Description: Potency index, ratio of compound effect to verapamil effect for inhibition of P-gp in human MDA435/LCC6MDR cells assessed as increase in rhodamine-123 accumulation. It is filed as cell-based.
In data set [13] the test system is P-gp. Description: Selectivity index, ratio of IC50 for cytotoxicity against mouse L929 cells to EC50 for inhibition of P-gp in human MDA435/LCC6MDR cells assessed as reduction of doxorubicin cytotoxic IC50 by half. The data set is classed as toxicity, cell-based. As to conditions: probe doxorubicin, read-out: Ratio IC50/EC50.
Data set [14] is filed under the species Homo sapiens. As to the kind of experiment: Inhibition of P-gp in human MDA435/LCC6MDR cells assessed as increase in rhodamine-123 accumulation at 2 uM measured after 150 mins by fluorescence spectrophotometric method relative to control. The data set is classed as cell-based.
Data set [15] in a line: Inhibition of P-gp in human MDA435/LCC6MDR cells assessed as reduction of paclitaxel cytotoxic IC50 by half measured after 5 days by Cell Titer 96 Aqueous assay. The data set is classed as cell-based. The following applies: 120 h.
Data set [16] relates to P-gp. Description: Selectivity index, ratio of IC50 for cytotoxicity against mouse L929 cells to EC50 for inhibition of P-gp in human MDA435/LCC6MDR cells assessed as reduction of paclitaxel cytotoxic IC50 by half. It is filed as toxicity, cell-based. The following applies: probe paclitaxel, read-out: Ratio IC50/EC50.
Data set [17] deals with P-gp. As to the kind of experiment: Selectivity index, ratio of IC50 for cytotoxicity against mouse L929 cells to EC50 for inhibition of P-gp in human MDA435/LCC6MDR cells assessed as reduction of vincristine cytotoxic IC50 by half. It is filed as toxicity, cell-based. The following applies: probe vincristine, read-out: Ratio IC50/EC50.
The nature of data set [18]: Inhibition of P-gp in human MDA435/LCC6MDR cells assessed as increase in doxorubicin accumulation to half of parental LCC6 cells measured after 150 mins by fluorescence spectrophotometric method. The data set is classed as cell-based. As to conditions: MDA-435/LCC6, 2.5 h.

The EC50 is the concentration at which the effect is half-maximal. One may read the IC50 as the concentration that inhibits the measured activity by half. Read a high IC50 as a need for much substance.

A value given as a limit tells only on which side of the number the result lay.

Take `COc1ccc(C(=O)CN2C(=O)C(c3ccc(OC)c(OC)c3)=C(c3ccc(OC)c(OC)c3)C2=O)cc1`: the fold change (FC) in data set [1] turned out to be 7.6. For the compound `COc1ccc(C2=C(c3ccc(OC)c(OC)c3)C(=O)N(CC(=O)c3ccc(OCc4ccccc4)c(OC)c3)C2=O)cc1`, the fold change (FC) in data set [1] stood at 22.1. As for `COc1cccc(C2=C(c3ccc(OC)c(OC)c3)C(=O)N(Cc3cc(OC)c(OC)c(OC)c3)C2=O)c1`, in data set [1], the fold change (FC) came to 11.4. Consider `COc1ccc(C(=O)CN2C(=O)C(c3cccc(OC)c3)=C(c3ccc(OC)c(OC)c3)C2=O)cc1`, for which the fold change (FC) in [1] came to 3.5. Take `COc1ccc(C2=C(c3ccc(OC)c(OC)c3)C(=O)N(CC(=O)c3ccc(OCc4ccccc4)c(OC)c3)C2=O)cc1OC`: the fold change (FC) in data set [1] is 39.8. For the compound `COc1ccc(C2=C(c3ccc(OC)c(OC)c3)C(=O)N(Cc3cc(OC)c(OC)c(OC)c3)C2=O)cc1OC`, the fold change (FC) in data set [1] turned out to be 13.8. Turning to `COc1ccc(C2=CC(=O)N(CC(=O)c3ccc(OCc4ccccc4)c(OC)c3)C2=O)cc1OC`, the fold change (FC) in data set [1] was determined as 1.4.

Turning to `COc1ccc(C(=O)CN2C(=O)C(c3ccccc3)=C(c3ccc(OC)c(OC)c3)C2=O)cc1`, the fold change (FC) in data set [1] was found to be 2.6.

In the case of `COc1ccc(C2=C(c3ccc(OCc4ccccc4)c(OC)c3)C(=O)N(CC(=O)c3ccc(OCc4ccccc4)c(OC)c3)C2=O)cc1OC`, the fold change (FC) in [1] was determined as 1.4. Still for that read-out and setting: the value for `COc1ccc(C2=C(c3ccc(OC)c(OC)c3)C(=O)N(CC(=O)c3ccc(S(C)(=O)=O)cc3)C2=O)cc1OC` was 1.4; that for `COc1ccc(C(=O)CN2C(=O)c3ccccc3C2=O)cc1` was 1.3; that for `COc1cc(CN2C(=O)c3ccccc3C2=O)cc(OC)c1OC` was 1.2.

As for `COc1ccc(C2=C(c3ccc(OC)c(OCc4ccccc4)c3)C(=O)N(Cc3cc(OC)c(OC)c(OC)c3)C2=O)cc1OC`, the fold change (FC) in data set [1] turned out to be 11.9. Still for that read-out and setting: the value for `COc1ccc(C2=C(c3ccc(OC)c(OC)c3)C(=O)N(Cc3ccc(S(C)(=O)=O)cc3)C2=O)cc1OC` was 3.4. As for `COc1ccc(C2=C(SC)C(=O)N(CC(=O)c3ccc(OCc4ccccc4)c(OC)c3)C2=O)cc1OC`, the fold change (FC) in data set [1] was 1.4. For `COc1cc(C(=O)CN2C(=O)c3ccccc3C2=O)ccc1OCc1ccccc1`, in data set [1], the fold change (FC) was determined as 1.1. For the compound `COc1ccc(C2=C(c3ccc(OC)c(OC)c3)C(=O)N(CC(=O)c3ccc(OCc4cc(OC)c(OC)c(OC)c4Br)c(OC)c3)C2=O)cc1OC`, the Ratio EC50 in data set [2], in [4], in data set [8] and in [11] was 2 to 3.7 throughout. In addition, the EC50 in [3] amounted to 132 nM; in data set [5] it was 137 nM; in data set [7], 120 nM; in [15], 165 nM; in [18], 78 nM. Also, the fold change (FC) in data set [6] was determined as 2.4; in data set [14], 4.8; in data set [1], 48. Besides, the selectivity ratio was > 730 in data set [9], > 833 in [13], > 606 in [16] and > 758 in data set [17]. In [10], the IC50 at 3 days was > 100000 nM. The Ratio in [12] amounted to 1.7. `COc1ccc(CCN(C)CCCC(C#N)(c2ccc(OC)c(OC)c2)C(C)C)cc1OC` (stereo unspecified) [VERAPAMIL] registered an IC50 at 3 days in data set [10] of 89000 nM. In the case of `COc1cccc(C2=C(c3ccc(OC)c(OC)c3)C(=O)N(CC(=O)c3ccc(OCc4ccccc4)c(OC)c3)C2=O)c1`, the fold change (FC) in data set [1] was determined as 8.8. With `COc1ccc(C2=C(c3ccccc3)C(=O)N(Cc3cc(OC)c(OC)c(OC)c3)C2=O)cc1OC`, in data set [1], the fold change (FC) came to 7.1. For the compound `COc1ccc(C2=C(c3ccc(C)cc3)C(=O)N(Cc3ccc(S(C)(=O)=O)cc3)C2=O)cc1OC`, in data set [1], the fold change (FC) turned out to be 3. As to `COc1ccc(C2=C(c3ccccc3)C(=O)N(CC(=O)c3ccc(OCc4ccccc4)c(OC)c3)C2=O)cc1OC`, the fold change (FC) in [1] is 5.9. Consider `COc1ccc(C2=C(c3ccc(OC)c(OC)c3)C(=O)N(Cc3cc(OC)c(OC)c(OC)c3)C2=O)cc1`, for which the fold change (FC) in data set [1] was 5.1. In the case of `COc1ccc(C2=C(c3ccc(OC)c(OC)c3)C(=O)N(Cc3ccc(OCc4ccccc4)c(OC)c3)C2=O)cc1OC`, the fold change (FC) in data set [1] is 9.3. On to `COc1ccc(C(=O)CN2C(=O)C(c3ccc(OC)cc3)=C(c3ccc(OC)c(OC)c3)C2=O)cc1`, for which the fold change (FC) in [1] worked out at 2.7. With `COc1ccc(C2=C(c3ccc(OC)c(OC)c3)C(=O)N(Cc3ccc(OCc4ccccc4)cc3)C2=O)cc1OC`, in data set [1], the fold change (FC) stood at 4.2. For `COc1ccc(C(=O)CN2C(=O)C(c3ccc(OC)c(OC)c3)=C(c3ccc(OCc4ccccc4)c(OC)c3)C2=O)cc1`, the fold change (FC) in [1] was 4.5. As to `COc1ccc(C2=C(c3ccc(C)cc3)C(=O)N(CC(=O)c3ccc(S(C)(=O)=O)cc3)C2=O)cc1OC`, the fold change (FC) in [1] came to 2. For `COc1ccc(C2=C(c3ccc(C)cc3)C(=O)N(CC(=O)c3ccc(OCc4ccccc4)c(OC)c3)C2=O)cc1OC`, in data set [1], the fold change (FC) worked out at 8.6.

Values taken from ChEMBL document CHEMBL3877281, “Extending the structure-activity relationship study of marine natural ningalin B analogues as P-glycoprotein inhibitors” (Eur J Med Chem, 2017).
